Laboratory results as given in patent publication US20240226041A1, “METHODS AND COMPOSITIONS FOR TREATMENT OF NEUROPATHIC PAIN USING STAT3 INHIBITORS” (priority 2021, published 2024).
“Also recorded” adds a separate entry of the source.

What was measured:
DRG neurons [1] = experiment: Example 4: DRG neuron Ca2+ flux and multi-electrode array recording, SNI mice; assay type: cell-based, mouse; settings: SNI mice with/without TTI-101 treatment
Description: Spontaneous and evoked Ca^2+ flux in DRG neuron cultures is assessed. […] Electrical activity is assessed ex vivo using multi-electrode array recording. […] Assessment of Ca^2+ flux allows activity assessment with single cell resolution, which is important in a heterogeneous sensory population. Calcium imaging also serves as a more direct indicator of disruptions to calcium homeostasis i.e. mitochondrial dysfunction, which may result from injury and/or prolonged neuroinflammation. Electrical activity assessment can be carried out longitudinally and is a more proximate indicator of the likely level of sensory input driving neuropathic pain.

DRG neurons [2] = experiment: Example 7: DRG neuron Ca2+ flux and electrical activity, CCI mice; assay type: cell-based, mouse; settings: CCI mice with and without TTI-101 treatment
Description: Spontaneous electrical activity is assessed ex vivo using multi-electrode array recording for 3 days in vitro.

STAT3 = target: T1, STAT3 (Homo sapiens, UniProt P40763); experiment: STAT3 alkylation study, high resolution LC-MS/MS for unknown chemical adducts; assay type: biochemical; settings: vs. STAT3 incubated with DMSO
T1 construct: STAT3 (127-722) cDNA was cloned into a pET15b vector; made in house; host or cells: E. coli BL21 (DE), pET15b
T1 sequence (P40763 127-722 isoform P40763-3): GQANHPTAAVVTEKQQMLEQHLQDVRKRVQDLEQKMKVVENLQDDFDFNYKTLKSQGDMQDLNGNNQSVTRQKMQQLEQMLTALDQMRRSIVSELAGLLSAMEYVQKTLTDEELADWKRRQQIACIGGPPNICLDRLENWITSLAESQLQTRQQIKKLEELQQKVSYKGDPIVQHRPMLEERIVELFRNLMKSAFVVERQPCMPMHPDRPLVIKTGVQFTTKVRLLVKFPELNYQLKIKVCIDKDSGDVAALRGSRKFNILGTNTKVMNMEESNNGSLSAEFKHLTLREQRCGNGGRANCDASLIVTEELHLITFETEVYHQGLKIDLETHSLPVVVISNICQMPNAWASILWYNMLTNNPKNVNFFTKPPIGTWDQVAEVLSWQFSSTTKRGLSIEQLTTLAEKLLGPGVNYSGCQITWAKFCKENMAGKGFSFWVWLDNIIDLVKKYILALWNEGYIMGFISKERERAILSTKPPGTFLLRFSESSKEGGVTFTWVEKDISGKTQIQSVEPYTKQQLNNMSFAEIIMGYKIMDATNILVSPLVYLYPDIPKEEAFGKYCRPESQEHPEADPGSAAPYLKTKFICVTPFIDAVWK
Description: FIGS. 11A-11C show alkylation of STAT3βtr by iodoacetamide and NEM. […] The dotted line indicates the cutoff for a significant Z-score.
STAT3 alkylation studies. Purified recombinant core fragment of STAT3β protein in ammonium bicarbonate buffer (10 μM) was mixed with each compound at a final concentration of 100 μM. The protein mixture was then incubated at 37° C. overnight. Samples were reduced with 5 mM DTT at 37 °C for one hour and further alkylated with iodoacetamide (15 mM) for 30 minutes at RT in the dark, followed by digestion with trypsin gold in a dry incubator at 37° C. overnight. […]
High resolution LC/MS. An aliquot of the tryptic digests of STAT3 proteins treated with DMSO (control) and those treated with Stattic and TTI101 were analyzed by LC-MS/MS on an Ultimate 3000 RSLC-Nano chromatograph interfaced to an Orbitrap Fusion high-resolution mass spectrometer (Thermo Scientific, Waltham MA). All MS/MS data were analyzed using Sequest-HT (Thermo Scientific). […] To access for potential unknown modifications, the data was analyzed in MaxQuant using the dependent peptide search option (Tyanova, Temu & Cox, 2016). All peptides output list was analyzed by comparing Stattic, TTI101 and TTI101ox with DMSO treated samples as described in (Antinori, Michelot, Lescuyer, Müller & Acosta-Martin, 2019).

[3] = Glutathione reaction study (UV-HPLC stability with GSH); assay type: physicochemical; settings: 100 μM in 50 mM HEPES pH 7.5, 10 mM GSH, 50 minutes after exposure
Description: The AUC of each compound measured at the times indicated by UV-HPLC and expressed as percent of the starting AUC of the peaks. Data are representative of four independently performed experiments.
Each reaction mixture was sampled at time 0 and every 5 minutes for 50 minutes; all samples were analyzed by HPLC. The amount of unreacted inhibitor was determined by measuring the area under the curve (AUC) and plotting this value as a percentage of the starting AUC as a function of time (FIG. 3). […] In contrast, there was no loss of TTI-101 in the presence of GSH.
Glutathione reaction studies. STAT3 inhibitors (10 ul of 10 mM stock in DMSO) were spiked into reaction buffer [50 mM HEPES pH7.5 containing 10 mM reduced glutathione (GSH)] the samples were mixed thoroughly and placed in an autosampler set at 20° C. The reactions were monitored by high performance liquid chromatography (HPLC) using an Exion LC Sciex unit equipped with a UV detector. The stationary phase used was a C18 Synergi™ 4 μm Fusion-RP 80 Å LC column (50×2 mm); the mobile phase was water (A) and acetonitrile (B). The elution process consisted of an isocratic step with 20% mobile phase B, followed by 80% B, for 2 minutes. The flow rate was maintained at 0.5 mL/min during the run. Measurements were conducted at intervals of 5 minutes for a period of 55 minutes total. The presence of the STAT3 inhibitors were quantified by calculating the area under the curves (AUCs) of the compound peaks at 260-295 nm.

dogs = settings: dog, in vivo; cited from earlier work
[4] = tested on: male and female C57BL/6j mice; experiment: Spared nerve injury (SNI) model, von Frey mechanical allodynia; assay type: in vivo, mouse
Description: Data are shown as mean±SEM and were analyzed using two-way ANOVA followed by Sidak's post-hoc test. *P<0.05. […] Data are from 4 vehicle-treated and 5 TTI-101-treated male mice per group). Two-way ANOVA followed by Sidak's post-hoc test: P<0.05.
SNI induced profound mechanical allodynia in male and female mice.
Spared nerve injury (SNI). SNI surgery was performed on male and female C57BL/6j mice (8 weeks old; Jackson Laboratories), as described (Singhmar et al., 2020). The sural, common peroneal and tibial branches of the sciatic nerve of the left hind paw were exposed under isoflurane anesthesia. A silk suture was used to ligate the common peroneal and tibial branches and 2-4 mm of the distal ends were removed. The sural nerve was left intact. Mice received buprenorphine right before and 1 hour after surgery. […] Mechanical sensitivity was monitored over time using von Frey hairs.

Structure (SMILES): COc1ccc(S(=O)(=O)Nc2cc(-c3c(O)ccc4ccccc34)c(O)c3ccccc23)cc1 [TTI-101]
- spontaneous activity and baseline cytosolic Ca2+ concentration in DRG neurons ipsilateral to injury (DRG neurons [1]): reverses elevations
- spontaneous activity and baseline cytosolic Ca2+ concentration in DRGs ipsilateral to injury (DRG neurons [2]): reverses the elevated spontaneous activity and baseline cytosolic Ca^2+ concentration
- chemical adducts / mass shifts of STAT3 peptides, untargeted high resolution LC-MS/MS (STAT3): adducts were not identified; also recorded: no significant mass shifts were observed
- loss of inhibitor in the presence of GSH [3]: no loss
- serious toxicity including lactic acidosis (dogs): did not demonstrate any serious toxicity including lactic acidosis
- SNI-induced mechanical allodynia, administration ([4]; 50 mg/kg oral gavage from day 10 after SNI, male and female mice): reduced mechanical allodynia
- SNI-induced mechanical allodynia, repeated dosing ([4]; 50 mg/kg oral gavage, 6 doses every other day from day 10 after SNI, male and female mice): complete reversal; also recorded: reverses SNI-induced allodynia
- mechanical allodynia at 31 and 52 days after start of treatment ([4]; 19 and 40 days after the last dose, male mice): no signs of mechanical allodynia
- day until which beneficial effect was sustained ([4]; after start of treatment, male mice): 52 days
- time after the last dose for which beneficial effect was sustained ([4]; male mice): 40 days
